The record followed here is PMC8931322 (Proceedings of the National Academy of Sciences of the …, 2022).

Each structure is given as a SMILES string.

Holding throughout (type): cell-based
The target of one assay is T1, AtSK22 (Arabidopsis thaliana, UniProt Q39012).
T1 sequence (Q39012 2-407): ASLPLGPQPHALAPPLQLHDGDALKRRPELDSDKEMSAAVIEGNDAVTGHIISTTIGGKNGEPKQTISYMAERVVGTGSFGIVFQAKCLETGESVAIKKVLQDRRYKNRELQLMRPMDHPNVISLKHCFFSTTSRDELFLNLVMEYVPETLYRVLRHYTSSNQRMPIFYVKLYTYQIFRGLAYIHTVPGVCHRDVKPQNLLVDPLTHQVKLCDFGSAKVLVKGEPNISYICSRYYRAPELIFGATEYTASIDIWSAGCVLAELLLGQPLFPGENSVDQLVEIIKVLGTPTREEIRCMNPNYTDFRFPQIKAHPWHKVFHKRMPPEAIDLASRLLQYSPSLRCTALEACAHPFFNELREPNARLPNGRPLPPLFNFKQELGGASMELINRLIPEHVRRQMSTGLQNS
Put plainly: CETSA melting curve, Western blot. The settings on record: intact cells, 250 µM bikinin, 30 min. A general note: Immunoblotting shows a protein as a band on a membrane.

Another assay has as its target T2, AtSK12 (Arabidopsis thaliana, UniProt P43289).
T2 sequence (P43289 2-409): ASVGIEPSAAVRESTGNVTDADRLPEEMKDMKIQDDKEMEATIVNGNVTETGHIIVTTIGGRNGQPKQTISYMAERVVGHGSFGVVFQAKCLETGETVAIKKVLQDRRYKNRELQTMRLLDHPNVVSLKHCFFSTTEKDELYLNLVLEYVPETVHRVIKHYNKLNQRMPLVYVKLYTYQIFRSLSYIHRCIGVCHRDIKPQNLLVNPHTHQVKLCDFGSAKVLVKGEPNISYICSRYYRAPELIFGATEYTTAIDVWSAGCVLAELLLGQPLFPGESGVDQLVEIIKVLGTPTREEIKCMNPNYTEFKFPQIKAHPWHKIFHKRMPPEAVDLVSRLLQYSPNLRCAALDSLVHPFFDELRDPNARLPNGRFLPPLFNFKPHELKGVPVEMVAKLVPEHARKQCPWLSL
Put plainly: isothermal dose-response CETSA.

The target of the next assay is T3, AtSK41 (Arabidopsis thaliana, UniProt Q39019).
T3 sequence (Q39019 1-421): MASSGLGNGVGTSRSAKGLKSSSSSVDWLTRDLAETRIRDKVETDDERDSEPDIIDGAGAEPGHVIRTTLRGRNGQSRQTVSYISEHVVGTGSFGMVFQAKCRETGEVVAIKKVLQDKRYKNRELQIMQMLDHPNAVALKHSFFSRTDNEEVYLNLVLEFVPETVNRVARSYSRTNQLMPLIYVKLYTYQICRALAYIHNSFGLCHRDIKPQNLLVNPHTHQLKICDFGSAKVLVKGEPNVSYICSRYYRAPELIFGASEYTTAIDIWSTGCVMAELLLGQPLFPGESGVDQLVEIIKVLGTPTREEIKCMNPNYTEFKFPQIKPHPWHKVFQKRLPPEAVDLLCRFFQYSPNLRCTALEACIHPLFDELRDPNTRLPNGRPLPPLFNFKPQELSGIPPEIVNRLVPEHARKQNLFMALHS
As to the kind of experiment: CETSA melting curve, Western blot. The settings on record: intact cells, 250 µM bikinin, 30 min.

The target in a further assay is T4, AtSK11 (Arabidopsis thaliana, UniProt P43288).
T4 sequence (P43288 2-405): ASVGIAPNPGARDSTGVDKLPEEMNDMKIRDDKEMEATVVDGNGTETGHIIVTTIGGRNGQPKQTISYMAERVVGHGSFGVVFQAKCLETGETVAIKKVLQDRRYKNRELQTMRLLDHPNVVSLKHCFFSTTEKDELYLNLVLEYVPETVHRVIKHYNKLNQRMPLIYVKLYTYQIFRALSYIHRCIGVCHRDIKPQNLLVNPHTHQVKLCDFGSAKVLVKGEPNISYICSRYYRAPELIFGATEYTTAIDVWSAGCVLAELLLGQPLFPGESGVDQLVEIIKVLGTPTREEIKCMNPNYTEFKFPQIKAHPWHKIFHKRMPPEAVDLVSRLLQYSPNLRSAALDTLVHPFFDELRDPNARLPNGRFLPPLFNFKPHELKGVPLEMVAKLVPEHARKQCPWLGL
Put plainly: CETSA melting curve, Western blot. The settings on record: intact cells, 250 µM bikinin, 30 min.

A further assay addresses T5, BIN2/AtSK21 (Arabidopsis thaliana, UniProt Q39011).
T5 sequence (Q39011 1-380): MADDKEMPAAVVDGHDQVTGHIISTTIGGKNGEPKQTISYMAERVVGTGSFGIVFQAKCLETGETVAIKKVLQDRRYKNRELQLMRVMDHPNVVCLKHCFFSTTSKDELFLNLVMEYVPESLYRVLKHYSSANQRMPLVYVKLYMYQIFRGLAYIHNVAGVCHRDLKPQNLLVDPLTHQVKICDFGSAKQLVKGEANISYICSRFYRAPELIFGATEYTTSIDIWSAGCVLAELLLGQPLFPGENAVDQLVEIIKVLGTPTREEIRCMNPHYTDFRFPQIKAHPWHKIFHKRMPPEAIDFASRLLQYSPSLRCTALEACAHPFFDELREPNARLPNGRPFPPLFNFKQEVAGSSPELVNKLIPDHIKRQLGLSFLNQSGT
As to the kind of experiment: CETSA melting curve, Western blot. The settings on record: intact cells, 250 µM bikinin, 30 min.

Consider `O=C(O)CCC(=O)Nc1ccc(Br)cn1` [bikinin], for which the Tm shift entry was “BIN2/AtSK21, AtSK22, and AtSK41 showed Tm shifts” at AtSK22; “BIN2/AtSK21, AtSK22, and AtSK41 showed Tm shifts” on AtSK41; “AtSK11, AtSK12, AtSK13, BIN2/AtSK21, AtSK22, and AtSK41 showed Tm shifts” at AtSK11; “BIN2/AtSK21, AtSK22, and AtSK41 showed Tm shifts” at BIN2/AtSK21. Moreover, at AtSK12, the EC50 (in general, the concentration giving half of the maximal effect) was around 70 µM.
